From US12005049B2, “Methods of preventing cancer metastasis” (MediciNova, Inc., priority 2021, dated 2024)

Columns and labels:
Omm1.3 cells [1] = assay: Wound healing (scratch) assay, Omm1.3; assay type: cell-based; conditions: exposed to HCM+UM-exo, 25 μM ibudilast, 48 hours
Method: FIG. 1C depicts Omm1.3 cells in scratch assays, in which after the scratch, the cells were incubated with control HCM or with HCM of hepatocytes exposed to UM-exosomes with or without 25 μM ibudilast. Pictures were taken at zero time-point or after 48 hours under a microscope at 10× magnification. Wound healing assay. Omm1.3 and MP41 cells were scratched with a sterile 200 μL pipette tip. Cells were washed in PBS and replaced with fresh RPMI 1640 complete media, or hepatocyte conditioned media (HCM) pretreated with UM-exo. Images of the wounded area were recorded using an inverted phase-contrast microscope at the indicated time points.

MP41 cells = assay: Wound healing (scratch) assay, MP41; assay type: cell-based; conditions: exposed to HCM+UM-exo; data not shown
Method: Wound healing assay. Omm1.3 and MP41 cells were scratched with a sterile 200 μL pipette tip. Cells were washed in PBS and replaced with fresh RPMI 1640 complete media, or hepatocyte conditioned media (HCM) pretreated with UM-exo. Images of the wounded area were recorded using an inverted phase-contrast microscope at the indicated time points.

GFP-Luc-Omm1.3 cells = assay: Metastatic uveal melanoma (UM) mouse model; assay type: in vivo; conditions: UM-exosome-educated mice, 7.5 mg/kg ibudilast i.p. daily
Method: FIG. 2A depicts quantification of bioluminescence intensity for each mouse in the abdominal region, while excluding bioluminescence in the eyes, in an evaluation of ibudilast in a metastatic UM mouse model. […] FIG. 2B depicts representative images of H&E-stained mouse liver sections from the metastatic UM mouse model. Mice were injected intravenously with vehicle (PBS) or 10 μg UM-exosome isolated from […] in 100 μL PBS for 7 days. Subsequently, GFP-Luc-Omm1.3 cells were retro-orbitally injected in the mice as described in Surriga et al. (Mol. Cancer Ther., 2013, 12:2817-26). Ibudilast was dissolved to a concentration of 1 mg/ml in physiological saline containing 10% v/v of polyoxyethylene hydrogenated castor oil 60 (HCO60). A week later, the mice were treated daily with vehicle or 7.5 mg/kg ibudilast i.p. and monitored for the development of metastasis. […] The mice were monitored weekly for luminescence with luciferin (Gold Biotechnology). After 7 weeks the livers and lungs were collected and analyzed for luminescence. Experiments were carried out under an Institutional Animal Care and Use Committee—approved (IACUC) protocol, and Institutional guidelines for the proper and humane use of animals were followed. Statistical significance was determined by 2-sample Student t-test.

[2] = Sanftner et al Xenobiotica 2009; cited from earlier work
MIF = assay: Plasma level of MIF; conditions: found by the inventors; no method given
Omm1.3 cells [3] = assay: Transwell migration assay; assay type: cell-based; conditions: HCM+UM-exo as chemoattractant, 24 hrs, 25 μM ibudilast, 10 μM diacerein, 1.0 μM reparixin, 0.25 μM crizotinib
Method: FIG. 1A depicts trans-well migration assay results in which Omm1.3 cells were stimulated with hepatocyte conditioned media and uveal melanoma exosomes (HCM+UM-exo) in the presence of vehicle (DMSO), 10 μM diacerein, 1.0 μM reparixin, 0.25 μM crizotinib or 25 μM ibudilast.
FIG. 1B depicts migrated cell count under the microscope from the trans-well migration assay, three fields for each condition. Experiments were repeated three times ±sd, p<0.001.
Exosome isolation. Exosomes were isolated from UM cell lines kept in serum-free media for 24 hrs. The media was collected and subjected to serial centrifugation steps starting with a spin at 3,000×g to remove dead cells and cell debris. The supernatant from this step is spun at 20,000×g to pellet microvesicles and large EVs. Lastly, the supernatant from this step is centrifuged at 100,000×g to pellet the exosome fraction.
Transwell migration assay. The in vitro migration assays were performed with 5×104 Omm1.3 cells seeded in 500 μL serum-free medium on BioCoat Matrigel Invasion Chambers (BD Biosciences). The conditioned media of the hepatocytes treated or untreated with UM-exosome was used as chemoattractant in the lower chamber. The cells were also treated with vehicle (DMSO), 0.25 μM crizotinib or 25 μM ibudilast for 24 hrs. […] Images of stained cells were taken through a microscope and quantified by counting cells in triplicate samples.

Q: With `CC(C)C(=O)c1c(C(C)C)nn2ccccc12` [ibudilast, 2-methyl-1-(2-(1-methylethyl)pyrazolo(1,5-a)pyridin-3-yl)1-propanone] as the compound, how does the “wound healing ability of UM cell line Omm1.3” value (Omm1.3 cells [1]) read?
A: suppressed the wound healing ability

Q: And the “wound healing ability of UM cell line MP41” value (MP41 cells)?
A: suppressed the wound healing ability

Q: And the “metastatic spread (bioluminescence signal intensity in the abdominal region)” value (GFP-Luc-Omm1.3 cells)?
A: showed inhibition of metastatic spread

Q: And the “presence of cancer cell clusters in liver sections (H&E staining)” value (GFP-Luc-Omm1.3 cells)?
A: not in the livers

Q: And the “bioluminescence in lungs and livers at necropsy” value (GFP-Luc-Omm1.3 cells; after 7 weeks)?
A: no bioluminescence signal in organs

Q: And the CNS penetration [2]?
A: good. CNS penetration

Q: What about the “plasma level of MIF” value (MIF) of the same compound?
A: lowers plasma level of MIF

Q: And the “UM cell migration toward UM-exosome-stimulated hepatocyte conditioned media (HCM)” value (Omm1.3 cells [3])?
A: dramatically inhibited cell migration
